Patent US20060188959A1, “Crystal structure of worm NitFhit reveals that a Nit tetramer binds tow Fhit dimers” (Thomas Jefferson University, priority 2000, published 2006)
Read-outs that look alike come from different tables or passages of the source.

How the values were obtained:
Assay type in all cases: biochemical, C. elegans
[1] = target: T1, Fhit active site of NitFhit (Caenorhabditis elegans, UniProt O76463); assay: Nonlabeled compounds as competitive inhibitors of ApppBODIPY hydrolysis
T1 construct: generated an NdeI site at the initiator codon and an XhoI site 3′ of the stop codon; made in house; host or cells: E. coli strain ER2566
T1 sequence (O76463 1-440): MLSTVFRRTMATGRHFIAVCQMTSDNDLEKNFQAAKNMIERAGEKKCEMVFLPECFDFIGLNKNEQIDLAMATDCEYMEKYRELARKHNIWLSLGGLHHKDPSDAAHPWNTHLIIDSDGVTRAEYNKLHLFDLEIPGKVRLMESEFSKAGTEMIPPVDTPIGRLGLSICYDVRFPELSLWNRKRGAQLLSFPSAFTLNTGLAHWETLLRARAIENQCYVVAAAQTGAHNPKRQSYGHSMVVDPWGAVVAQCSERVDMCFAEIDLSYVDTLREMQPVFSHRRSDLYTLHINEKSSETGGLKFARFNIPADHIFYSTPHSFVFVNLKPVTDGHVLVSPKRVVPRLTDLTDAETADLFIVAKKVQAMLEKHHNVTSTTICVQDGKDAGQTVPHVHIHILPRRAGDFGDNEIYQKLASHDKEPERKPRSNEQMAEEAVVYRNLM
Method: Assays of nonlabeled compounds as competitive inhibitors of ApppBODIPY hydrolysis were also performed as developed for human Fhit.

[2] = target: T1, Fhit active site of NitFhit; assay: ApppBODIPY substrate decay assay of the Fhit active site of NitFhit; details: ApppBODIPY as substrate; % of the activity of human Fhit
[3] = target: T1, Fhit active site of NitFhit; assay: GpppBODIPY initial rate assay of the Fhit active site of NitFhit
[4] = titration of nonlabeled compound into 1.5 μM ApppBODIPY assays, five competitor concentrations, read-out: Kl
[5] = initial rates, GpppBODIPY titrated 40 μM to 2.5 μM, 0.5 pmol enzyme

Molecule	Ki [1, 4] [µM]	Ki [1] [µM]	further results
Nc1ncnc2c1ncn2[C@@H]1O[C@H](COP(=O)(O)OP(=O)(O)OP(=O)(O)OC[C@H]2O[C@@H](n3cnc4c(N)ncnc43)[C@H](O)[C@@H]2O)[C@@H](O)[C@H]1O [ApppA]	4.2 ± 0.4	–	–
Appp-S-(4-4-fluoro-5,7-dimethyl-4-bora-3a,4a-diaza-s-indacine-3-yl) [ApppBODIPY]	–	–	activity of worm NitFhit relative to human Fhit on the substrate (kcat/Km) [2]: 22%
Nc1ncnc2c1ncn2[C@@H]1O[C@H](COP(O)(=S)OP(=O)(O)OP(=O)(O)O)[C@@H](O)[C@H]1O (some centres unmarked) [ATP-αS]	–	287 ± 73	–
Nc1ncnc2c1ncn2[C@@H]1O[C@H](COP(=O)(O)O)[C@@H](O)[C@H]1O [AMP]	–	153 ± 13	–
O=P(O)(O)OP(=O)(O)O [pyrophosphate]	–	78 ± 12	–
Nc1ncnc2c1ncn2[C@@H]1O[C@H](COP(=O)(O)OP(=O)(O)OP(=O)(O)OP(=O)(O)OC[C@H]2O[C@@H](n3cnc4c(N)ncnc43)[C@H](O)[C@@H]2O)[C@@H](O)[C@H]1O [AppppA]	2.7 ± 0.3	–	–
Gppp-S-(4-4-fluoro-5,7-dimethyl-4-bora-3a,4a-diaza-s-indacine-3-yl) [GpppBODIPY]	–	–	activity of worm NitFhit relative to human Fhit on the substrate (kcat/Km) ([3]; GpppBODIPY as substrate, % of the activity of human Fhit): 109%; Km [3, 5]: 3.7 µM; kcat [3, 5]: 2.4 s⁻¹
Nc1ncnc2c1ncn2[C@@H]1O[C@H](COP(=O)(O)OP(=O)(O)OP(=O)(O)OP(=O)(O)OP(=O)(O)OC[C@H]2O[C@@H](n3cnc4c(N)ncnc43)[C@H](O)[C@@H]2O)[C@@H](O)[C@H]1O [ApppppA]	4.5 ± 0.7	–	–
Nc1nc(O)c2ncn([C@@H]3O[C@H](COP(=O)(S)OP(=O)(O)OP(=O)(O)O)[C@@H](O)[C@H]3O)c2n1 (some centres unmarked) [GTP-αS]	–	481 ± 27	–
